Test results taken from ChEMBL document CHEMBL1201862, “PubChem BioAssay data set” (2004).
Active and inactive are the calls of the source.

Tests used:
[1] = molecular target: T1, E3 ubiquitin-protein ligase XIAP (Homo sapiens, UniProt P98170); test: Counter Screen using XIAP-Bir3 for Chemical Antagonists of Bir1/2 domains of IAP-family anti-apoptotic proteins. [Related pubchem assays (depositor defined):AID1018, AID1449, AID1514, AID1638, AID1749, AID1750, AID488957, AID488963]
[2] = molecular target: T1, E3 ubiquitin-protein ligase XIAP; test: small molecules displacing peptide from XIAP – biochemical, IAP family, fluorescence polarization (AID 1018); format: functional
[3] = molecular target: T2, Tyrosine-protein phosphatase non-receptor type 7 (Homo sapiens, UniProt P35236); format: functional
T2 sequence (P35236 whole entry): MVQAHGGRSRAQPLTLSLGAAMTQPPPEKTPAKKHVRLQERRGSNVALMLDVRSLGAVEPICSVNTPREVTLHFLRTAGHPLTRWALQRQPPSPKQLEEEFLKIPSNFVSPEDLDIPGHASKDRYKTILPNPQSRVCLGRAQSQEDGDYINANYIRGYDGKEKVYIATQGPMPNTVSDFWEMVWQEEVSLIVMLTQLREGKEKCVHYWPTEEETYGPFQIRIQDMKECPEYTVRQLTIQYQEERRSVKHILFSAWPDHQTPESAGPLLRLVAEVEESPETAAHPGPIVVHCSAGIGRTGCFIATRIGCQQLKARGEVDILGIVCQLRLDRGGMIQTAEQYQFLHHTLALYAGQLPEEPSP

[4] = molecular target: T3, Tyrosine-protein phosphatase non-receptor type 22 (Homo sapiens, UniProt Q9Y2R2); format: functional
T3 sequence (Q9Y2R2 whole entry): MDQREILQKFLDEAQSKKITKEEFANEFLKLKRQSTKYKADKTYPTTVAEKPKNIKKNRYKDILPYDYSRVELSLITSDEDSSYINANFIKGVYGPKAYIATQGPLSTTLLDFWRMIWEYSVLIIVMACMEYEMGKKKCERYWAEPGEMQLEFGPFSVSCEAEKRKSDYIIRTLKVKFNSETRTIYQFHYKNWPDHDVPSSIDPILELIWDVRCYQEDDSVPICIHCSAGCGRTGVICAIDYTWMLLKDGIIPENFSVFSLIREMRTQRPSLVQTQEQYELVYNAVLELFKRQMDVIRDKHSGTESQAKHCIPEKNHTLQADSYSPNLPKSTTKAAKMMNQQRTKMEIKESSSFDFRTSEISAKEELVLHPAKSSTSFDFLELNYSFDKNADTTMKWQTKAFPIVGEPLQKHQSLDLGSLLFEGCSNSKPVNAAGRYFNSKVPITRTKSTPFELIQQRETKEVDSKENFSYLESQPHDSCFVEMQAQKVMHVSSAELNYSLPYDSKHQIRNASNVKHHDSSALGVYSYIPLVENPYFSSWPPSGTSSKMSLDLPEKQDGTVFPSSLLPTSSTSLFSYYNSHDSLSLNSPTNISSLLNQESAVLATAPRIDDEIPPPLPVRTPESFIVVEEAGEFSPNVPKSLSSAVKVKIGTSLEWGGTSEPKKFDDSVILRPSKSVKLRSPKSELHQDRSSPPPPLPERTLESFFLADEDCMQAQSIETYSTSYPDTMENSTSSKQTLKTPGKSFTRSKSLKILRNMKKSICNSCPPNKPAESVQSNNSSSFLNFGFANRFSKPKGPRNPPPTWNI

[5] = molecular target: T3, Tyrosine-protein phosphatase non-receptor type 22; format: functional; remark: listed apart in the source
[6] = molecular target: T4, Protein RecA (Mycobacterium tuberculosis, UniProt P9WHJ3); test: Fluorescence Cell-Free Homogeneous Dose Retest to Identify Inhibitors of RecA-Intein Splicing Activity. [Related pubchem assays (depositor defined):AID2097, AID2223, AID489010, AID492950]; format: functional
T4 sequence (P9WHJ3 whole entry): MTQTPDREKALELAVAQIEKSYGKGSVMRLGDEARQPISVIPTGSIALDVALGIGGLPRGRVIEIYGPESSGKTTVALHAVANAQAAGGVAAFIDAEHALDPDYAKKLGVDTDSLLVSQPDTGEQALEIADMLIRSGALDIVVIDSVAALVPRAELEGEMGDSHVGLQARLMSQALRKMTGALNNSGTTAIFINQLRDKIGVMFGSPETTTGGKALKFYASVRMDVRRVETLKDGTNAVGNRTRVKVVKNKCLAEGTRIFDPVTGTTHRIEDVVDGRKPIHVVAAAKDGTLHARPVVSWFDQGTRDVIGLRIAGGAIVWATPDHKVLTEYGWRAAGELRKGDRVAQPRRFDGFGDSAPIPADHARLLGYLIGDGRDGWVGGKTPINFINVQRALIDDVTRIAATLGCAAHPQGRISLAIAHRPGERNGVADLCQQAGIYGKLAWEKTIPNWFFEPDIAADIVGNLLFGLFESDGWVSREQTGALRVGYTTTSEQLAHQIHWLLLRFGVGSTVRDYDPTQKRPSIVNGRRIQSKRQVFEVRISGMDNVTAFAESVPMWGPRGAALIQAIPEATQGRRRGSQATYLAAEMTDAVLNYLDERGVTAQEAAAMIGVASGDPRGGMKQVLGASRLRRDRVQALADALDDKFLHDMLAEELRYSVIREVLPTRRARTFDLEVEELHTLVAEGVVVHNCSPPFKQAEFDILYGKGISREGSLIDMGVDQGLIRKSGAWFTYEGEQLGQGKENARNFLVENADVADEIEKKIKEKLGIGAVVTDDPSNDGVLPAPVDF

[7] = non-specific 3'UTR reporter inhibition in Clone20-Shn3RL – cell-based, Renilla luciferase, cherry-picked, counter-screen for Shn3 inhibitor project, dose response (AID 624133); format: functional
[8] = loss of viability in HepG2 cells – cell-based, CellTiter-Glo, cherry-picked, cytotoxicity control for Shn3 inhibitor project, dose response (AID 624134); format: functional
[9] = reduced cellular PGC1a acetyl-lysine signal – cell-based, cherry-picked samples, dose response (AID 720514); format: functional;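 note: potency may reflect raised or lowered acetylation signal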
[10] = tested on: INS1; test: INS-1E survival protection against cytokine death – cell-based, luminescence, retest, dose response (AID 449756); format: functional; conditions: Rattus norvegicus;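 note: cell death triggered by IL-1 beta plus TNF-alpha plus IFN-gamma mixture; protective hits raise ATP signal compared with cytokine alone wells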
[11] = molecular target: T5, Replicative DNA helicase DnaB (Mycobacterium tuberculosis, UniProt P9WMR3); test: DnaB intein splicing inhibitors, dose response, biochemical, cell-free fluorescence (AID 449749); format: functional
T5 sequence (P9WMR3 whole entry): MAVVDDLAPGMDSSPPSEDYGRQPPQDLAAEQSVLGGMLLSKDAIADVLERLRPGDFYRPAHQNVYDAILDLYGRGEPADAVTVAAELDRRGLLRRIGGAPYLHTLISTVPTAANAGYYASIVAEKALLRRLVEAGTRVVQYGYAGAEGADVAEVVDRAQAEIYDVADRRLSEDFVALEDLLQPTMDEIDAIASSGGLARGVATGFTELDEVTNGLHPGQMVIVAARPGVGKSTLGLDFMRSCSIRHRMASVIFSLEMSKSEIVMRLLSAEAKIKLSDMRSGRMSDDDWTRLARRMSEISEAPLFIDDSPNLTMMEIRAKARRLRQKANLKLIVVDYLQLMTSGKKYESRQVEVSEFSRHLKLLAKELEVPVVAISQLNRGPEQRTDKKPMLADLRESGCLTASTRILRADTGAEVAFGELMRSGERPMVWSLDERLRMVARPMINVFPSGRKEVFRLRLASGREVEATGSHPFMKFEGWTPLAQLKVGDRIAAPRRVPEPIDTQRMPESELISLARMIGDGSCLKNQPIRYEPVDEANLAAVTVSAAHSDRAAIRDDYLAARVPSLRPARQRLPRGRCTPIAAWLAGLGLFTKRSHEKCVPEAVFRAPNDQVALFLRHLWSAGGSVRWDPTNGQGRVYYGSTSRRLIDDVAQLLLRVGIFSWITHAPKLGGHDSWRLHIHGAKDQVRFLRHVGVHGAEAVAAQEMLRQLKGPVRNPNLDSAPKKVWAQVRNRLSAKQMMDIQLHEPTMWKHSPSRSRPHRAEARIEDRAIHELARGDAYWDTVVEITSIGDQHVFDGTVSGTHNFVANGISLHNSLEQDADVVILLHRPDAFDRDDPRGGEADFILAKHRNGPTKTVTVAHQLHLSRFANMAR

[12] = reduction of Shn3 3'UTR-driven luciferase in osteoblasts – cell-based, Clone20 osteoblasts, firefly luciferase, cherry-picked, dose response (AID 624132); format: functional;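 note: firefly luciferase luminescence from reporter carrying the Shn3 3'UTR in osteoblasts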
[13] = Fluorescence-based cell-based high throughput dose response assay for inhibitors of the interaction of nucleotide-binding oligomerization domain containing 2 (NOD2) and the receptor-interacting serine-threonine kinase 2 (RIPK2).; format: functional; conditions: Homo sapiens
[14] = viability of HCT116 lacking mutant beta-catenin – cell-based, human colon tumor, dose response (AID 1045); format: functional;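 note: HCT116 colon tumor cells with beta catenin knocked out; cells exposed to compound for 60 hours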
[15] = viability of PTEN-deleted HCT116 cells – cell-based, HCT116 PTEN knockout, dose response (AID 1047); format: functional;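 note: HCT116 colon tumor cells with PTEN knocked out; cells exposed to compound for 60 hours before readout; potency for loss of cell viability measured by luminescence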
[16] = molecular target: G-protein coupled receptor 55 (Homo sapiens, UniProt Q9Y2T6); test: selective activators of receptor GPR55 – imaging, U2OS cells, beta-arrestin-GFP redistribution, primary screen (AID 1961); format: functional
[17] = cells; format: functional
[18] = molecular target: T6, Short transient receptor potential channel 4 (Mus musculus, UniProt Q9QUQ5); test: calcium entry via TRPC4 opening agents – cell-based, HEK293 TRPC4/mu-opioid, Fluo-4 calcium, dose response (AID 434937); format: functional
T6 sequence (Q9QUQ5 whole entry): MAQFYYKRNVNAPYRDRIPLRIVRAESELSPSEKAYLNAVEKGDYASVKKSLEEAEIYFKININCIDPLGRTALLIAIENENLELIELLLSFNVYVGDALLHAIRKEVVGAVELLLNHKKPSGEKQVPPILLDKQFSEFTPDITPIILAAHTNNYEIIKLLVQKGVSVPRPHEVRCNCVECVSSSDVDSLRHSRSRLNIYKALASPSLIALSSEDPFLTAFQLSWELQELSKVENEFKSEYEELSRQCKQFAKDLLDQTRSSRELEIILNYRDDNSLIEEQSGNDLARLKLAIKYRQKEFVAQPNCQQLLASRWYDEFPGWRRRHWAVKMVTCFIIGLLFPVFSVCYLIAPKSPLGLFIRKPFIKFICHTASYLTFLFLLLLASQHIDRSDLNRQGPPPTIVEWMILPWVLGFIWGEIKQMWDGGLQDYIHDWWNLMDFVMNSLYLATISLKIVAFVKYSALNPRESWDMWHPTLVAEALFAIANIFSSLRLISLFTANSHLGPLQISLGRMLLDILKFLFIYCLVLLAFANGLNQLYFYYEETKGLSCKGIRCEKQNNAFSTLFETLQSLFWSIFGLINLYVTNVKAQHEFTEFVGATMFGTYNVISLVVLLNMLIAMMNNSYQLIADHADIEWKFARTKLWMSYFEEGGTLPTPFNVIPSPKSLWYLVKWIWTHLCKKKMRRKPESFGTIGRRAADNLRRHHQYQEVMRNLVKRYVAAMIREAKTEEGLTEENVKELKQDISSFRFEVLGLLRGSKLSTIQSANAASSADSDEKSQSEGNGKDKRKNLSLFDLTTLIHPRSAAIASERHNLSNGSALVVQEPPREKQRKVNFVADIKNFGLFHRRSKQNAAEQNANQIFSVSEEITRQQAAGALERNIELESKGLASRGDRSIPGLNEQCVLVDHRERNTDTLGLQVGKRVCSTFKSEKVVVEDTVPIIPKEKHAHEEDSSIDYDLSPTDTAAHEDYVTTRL

[19] = THP-1 cell cytotoxicity, dose response, cytotoxicity control for non-replicating M. tuberculosis project (AID 489025); format: functional
[20] = Vero E6 cell cytotoxicity, dose response, cytotoxicity control for non-replicating M. tuberculosis project, secondary assay (AID 492998); format: functional, VeroE6; conditions: Vero C1008
[21] = viability loss of HPDE-C7K cells – cell-based, fluorescence, HTS, primary screen (AID 431); format: functional; conditions: Homo sapiens
[22] = HPDE-C7 pancreatic duct cell viability loss – fluorescence, HTS (AID 430); format: functional, cell-based; conditions: Homo sapiens

T1 sequence (P98170 whole entry): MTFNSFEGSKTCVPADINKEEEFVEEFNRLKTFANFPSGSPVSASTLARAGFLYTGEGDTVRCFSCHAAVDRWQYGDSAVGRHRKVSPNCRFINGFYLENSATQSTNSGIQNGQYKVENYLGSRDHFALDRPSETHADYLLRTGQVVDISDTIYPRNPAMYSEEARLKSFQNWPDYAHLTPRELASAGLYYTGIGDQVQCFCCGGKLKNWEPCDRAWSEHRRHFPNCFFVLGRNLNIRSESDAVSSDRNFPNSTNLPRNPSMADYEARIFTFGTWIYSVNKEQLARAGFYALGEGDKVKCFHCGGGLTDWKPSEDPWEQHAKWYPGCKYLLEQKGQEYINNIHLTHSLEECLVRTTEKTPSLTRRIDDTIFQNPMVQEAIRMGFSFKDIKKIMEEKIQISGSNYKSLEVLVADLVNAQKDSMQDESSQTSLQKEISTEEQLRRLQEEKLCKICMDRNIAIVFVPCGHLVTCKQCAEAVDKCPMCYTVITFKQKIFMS
G-protein coupled receptor 55, sequence (Q9Y2T6 whole entry): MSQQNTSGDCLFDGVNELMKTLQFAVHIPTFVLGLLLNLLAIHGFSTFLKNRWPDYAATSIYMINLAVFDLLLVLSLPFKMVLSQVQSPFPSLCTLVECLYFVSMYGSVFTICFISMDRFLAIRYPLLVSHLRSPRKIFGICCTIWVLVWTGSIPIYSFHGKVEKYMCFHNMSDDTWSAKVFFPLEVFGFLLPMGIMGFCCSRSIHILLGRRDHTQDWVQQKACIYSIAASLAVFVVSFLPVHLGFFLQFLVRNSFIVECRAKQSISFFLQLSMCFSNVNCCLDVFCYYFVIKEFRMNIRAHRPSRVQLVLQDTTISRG

## CC(C)(C)NC(=O)C(c1ccncc1)N(C(=O)Cn1nnc(-c2ccc(F)cc2)n1)c1ccccc1F (configuration not stated)
[1]
  IC50: > 100 µM (inactive)
[2]
  IC50: > 100 µM (not active)

## Brc1ccc(C2Nc3cccc4cccc(c34)N2)o1
[3]
  IC50: > 79.4 µM (inactive)
[4]
  IC50: > 79.4 µM (inactive)
[5]
  IC50: > 79.4 µM (inactive)

## O=C(NCc1cccnc1)/C(=C/c1ccc(-c2ccc(Cl)cc2)o1)S(=O)(=O)c1ccccc1
[6]
  EC50: 27.3 µM (active)
[7]
  AC50: 11.8 µM (active)
[8]
  AC50: 11.9 µM (active)
[9]
  AC50: 6.04 µM (active)
[10]
  AC50: 6.51 µM (active)
[11]
  AC50: > 380 µM (inactive)
[12]
  AC50: 5.35 µM (active)
[13]
  IC50: 6.4 µM (active)
[14]
  EC50: 4.08 µM (active)
[15]
  EC50: 4.4 µM (active)
[16]
  EC50: > 32 µM (inactive)

## CCOc1ccc(C(=O)Nc2cccc(NC(=O)c3cccs3)c2)cc1[N+](=O)[O-]
[1]
  IC50: > 100 µM (inactive)
[2]
  IC50: > 100 µM (not active)

## Cn1c(SCC(=O)N2CCN(c3ccccc3)CC2)nnc1-c1cc2ccccc2o1
[3]
  IC50: > 79.4 µM (inactive)
[4]
  IC50: > 79.4 µM (inactive)
[5]
  IC50: > 79.4 µM (inactive)

## CCn1cc(CNC(=O)c2cc([N+](=O)[O-])c(C)c([N+](=O)[O-])c2)cn1
[3]
  IC50: > 79.4 µM (inactive)
[4]
  IC50: > 79.4 µM (inactive)
[5]
  IC50: > 79.4 µM (inactive)

## COC(=O)C1=C(C(=O)OC)N2C=CC=CC2(C)C(C(=O)OC)=C1C(=O)OC (configuration not stated)
[1]
  IC50: > 100 µM (inactive)
[2]
  IC50: > 100 µM (not active)

## CN(C)C=C1C(=O)N(C2CCCCC2)C(=O)N(C2CCCCC2)C1=O
[17]
  IC50: 11.2 µM (active)
[18]
  EC50: 9.44 µM (active)
[19]
  CC50: > 40 µM (active)
[20]
  CC50: > 20 µM (active)
[21]
  EC50: 13.7 µM (active)
[22]
  EC50: 9.27 µM (active)
